Laboratory results reported in ChEMBL document CHEMBL5653615 (J Biol Chem, 2013).

Key:
[1] = target: STE20-like serine/threonine-protein kinase (Homo sapiens) (UniProt Q9H2G2); assay: Inhibition of human STK2 at 18.6 nM by HotSpot assay relative to control
[2] = target: T1, Protein kinase C epsilon type (Homo sapiens) (UniProt Q02156); assay: Inhibition of human PKCepsilon at 18.6 nM by HotSpot assay relative to control
T1 sequence (whole entry): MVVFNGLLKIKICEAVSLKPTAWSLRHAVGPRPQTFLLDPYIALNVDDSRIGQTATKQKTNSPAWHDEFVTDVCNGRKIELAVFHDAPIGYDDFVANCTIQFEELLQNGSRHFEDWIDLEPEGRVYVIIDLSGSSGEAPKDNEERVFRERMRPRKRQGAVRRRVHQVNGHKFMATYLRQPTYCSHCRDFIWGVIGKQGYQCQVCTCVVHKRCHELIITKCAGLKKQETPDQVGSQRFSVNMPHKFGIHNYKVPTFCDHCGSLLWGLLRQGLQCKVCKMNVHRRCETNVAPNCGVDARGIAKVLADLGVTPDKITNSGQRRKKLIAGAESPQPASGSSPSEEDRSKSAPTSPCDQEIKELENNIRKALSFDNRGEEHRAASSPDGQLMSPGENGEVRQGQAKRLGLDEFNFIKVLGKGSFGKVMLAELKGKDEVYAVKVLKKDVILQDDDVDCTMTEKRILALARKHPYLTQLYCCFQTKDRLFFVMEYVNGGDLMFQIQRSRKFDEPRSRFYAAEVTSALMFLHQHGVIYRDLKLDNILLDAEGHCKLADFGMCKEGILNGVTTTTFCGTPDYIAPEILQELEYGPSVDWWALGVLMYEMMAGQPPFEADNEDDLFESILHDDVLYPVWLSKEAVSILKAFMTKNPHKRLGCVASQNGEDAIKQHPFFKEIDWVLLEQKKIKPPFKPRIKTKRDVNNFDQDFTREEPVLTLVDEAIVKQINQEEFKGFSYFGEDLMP

[3] = target: T2, Calcium/calmodulin-dependent protein kinase type IV (Homo sapiens) (UniProt Q16566); assay: Inhibition of human CAMK4 at 18.6 nM by HotSpot assay relative to control
T2 sequence (whole entry): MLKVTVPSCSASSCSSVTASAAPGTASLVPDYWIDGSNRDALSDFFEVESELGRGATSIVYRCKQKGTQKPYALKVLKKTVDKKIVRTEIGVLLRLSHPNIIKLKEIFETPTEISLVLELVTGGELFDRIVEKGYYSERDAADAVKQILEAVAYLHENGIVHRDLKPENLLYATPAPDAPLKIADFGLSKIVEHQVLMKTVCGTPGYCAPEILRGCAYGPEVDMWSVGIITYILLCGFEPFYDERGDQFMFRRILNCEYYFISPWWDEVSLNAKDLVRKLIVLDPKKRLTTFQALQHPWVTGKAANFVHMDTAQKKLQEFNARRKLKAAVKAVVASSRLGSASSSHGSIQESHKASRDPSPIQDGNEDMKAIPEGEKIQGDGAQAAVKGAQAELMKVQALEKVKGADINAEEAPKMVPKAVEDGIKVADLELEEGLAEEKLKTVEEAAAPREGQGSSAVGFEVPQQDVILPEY

[4] = target: Casein kinase I isoform epsilon (Homo sapiens) (UniProt P49674); assay: Inhibition of human CK1epsilon at 18.6 nM by HotSpot assay relative to control
Chain of Casein kinase I isoform epsilon (Homo sapiens) (P49674 whole entry, looked up, canonical isoform): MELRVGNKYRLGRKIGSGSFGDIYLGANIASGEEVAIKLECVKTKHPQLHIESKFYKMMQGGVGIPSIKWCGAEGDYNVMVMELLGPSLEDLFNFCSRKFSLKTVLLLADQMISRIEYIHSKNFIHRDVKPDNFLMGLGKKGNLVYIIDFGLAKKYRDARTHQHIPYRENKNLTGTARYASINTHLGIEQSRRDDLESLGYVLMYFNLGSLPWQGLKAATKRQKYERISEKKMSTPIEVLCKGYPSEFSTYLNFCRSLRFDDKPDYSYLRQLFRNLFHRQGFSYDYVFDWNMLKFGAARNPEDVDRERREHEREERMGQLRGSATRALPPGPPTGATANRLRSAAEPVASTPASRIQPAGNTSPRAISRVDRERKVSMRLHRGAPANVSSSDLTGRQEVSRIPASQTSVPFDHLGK

[5] = target: Tyrosine-protein kinase Fes/Fps (Homo sapiens) (UniProt P07332); assay: Inhibition of human FES at 18.6 nM by HotSpot assay relative to control
Chain of Tyrosine-protein kinase Fes/Fps (Homo sapiens) (P07332 whole entry): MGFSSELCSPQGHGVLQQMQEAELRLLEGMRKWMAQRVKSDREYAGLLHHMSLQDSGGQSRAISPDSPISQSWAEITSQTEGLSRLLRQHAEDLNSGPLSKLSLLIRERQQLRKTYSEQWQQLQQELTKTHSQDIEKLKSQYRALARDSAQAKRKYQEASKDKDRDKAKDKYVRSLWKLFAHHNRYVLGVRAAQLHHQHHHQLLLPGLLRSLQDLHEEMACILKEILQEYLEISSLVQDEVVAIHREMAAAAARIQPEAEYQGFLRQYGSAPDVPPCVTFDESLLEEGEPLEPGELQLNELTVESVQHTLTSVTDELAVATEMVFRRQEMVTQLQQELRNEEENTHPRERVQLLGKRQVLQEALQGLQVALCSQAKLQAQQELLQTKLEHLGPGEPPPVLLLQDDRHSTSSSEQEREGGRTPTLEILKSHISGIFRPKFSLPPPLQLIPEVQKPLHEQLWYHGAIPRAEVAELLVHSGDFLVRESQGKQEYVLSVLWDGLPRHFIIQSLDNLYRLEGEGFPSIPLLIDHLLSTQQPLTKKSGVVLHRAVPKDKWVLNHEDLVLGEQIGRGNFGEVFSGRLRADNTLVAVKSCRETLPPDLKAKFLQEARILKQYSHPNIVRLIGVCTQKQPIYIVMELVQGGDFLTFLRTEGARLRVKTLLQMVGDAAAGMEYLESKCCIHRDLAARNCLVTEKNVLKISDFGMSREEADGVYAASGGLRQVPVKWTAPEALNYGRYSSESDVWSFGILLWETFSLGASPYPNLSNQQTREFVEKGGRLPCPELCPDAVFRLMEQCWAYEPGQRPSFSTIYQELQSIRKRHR

[6] = target: Serine/threonine-protein kinase MARK1 (Homo sapiens) (UniProt Q9P0L2); assay: Inhibition of human MARK1 at 1.82 nM by HotSpot assay relative to control
Chain of Serine/threonine-protein kinase MARK1 (Homo sapiens) (Q9P0L2 whole entry, looked up): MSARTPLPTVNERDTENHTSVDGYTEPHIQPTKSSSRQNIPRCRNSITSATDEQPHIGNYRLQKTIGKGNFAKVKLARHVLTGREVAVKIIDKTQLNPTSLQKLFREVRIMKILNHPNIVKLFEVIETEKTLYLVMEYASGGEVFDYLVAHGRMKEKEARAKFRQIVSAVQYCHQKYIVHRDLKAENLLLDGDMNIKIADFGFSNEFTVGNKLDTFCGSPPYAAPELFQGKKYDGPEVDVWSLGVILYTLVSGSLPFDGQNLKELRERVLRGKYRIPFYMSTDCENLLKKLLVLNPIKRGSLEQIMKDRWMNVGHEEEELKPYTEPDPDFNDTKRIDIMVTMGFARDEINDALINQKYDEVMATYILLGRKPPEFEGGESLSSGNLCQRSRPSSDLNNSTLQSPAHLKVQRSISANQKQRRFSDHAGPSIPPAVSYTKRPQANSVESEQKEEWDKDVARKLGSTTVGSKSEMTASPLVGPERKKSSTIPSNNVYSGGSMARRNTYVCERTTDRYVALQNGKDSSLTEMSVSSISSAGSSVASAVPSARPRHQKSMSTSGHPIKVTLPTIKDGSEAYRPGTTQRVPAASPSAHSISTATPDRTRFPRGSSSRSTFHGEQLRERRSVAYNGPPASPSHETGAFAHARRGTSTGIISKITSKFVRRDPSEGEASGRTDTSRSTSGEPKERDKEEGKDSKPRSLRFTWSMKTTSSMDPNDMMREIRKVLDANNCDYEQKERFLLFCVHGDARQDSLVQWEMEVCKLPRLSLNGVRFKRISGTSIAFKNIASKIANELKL

[7] = target: T3, Serine/threonine-protein kinase TAO3 (Homo sapiens) (UniProt Q9H2K8); assay: Inhibition of human JIK at 1.82 nM by HotSpot assay relative to control
T3 sequence (whole entry): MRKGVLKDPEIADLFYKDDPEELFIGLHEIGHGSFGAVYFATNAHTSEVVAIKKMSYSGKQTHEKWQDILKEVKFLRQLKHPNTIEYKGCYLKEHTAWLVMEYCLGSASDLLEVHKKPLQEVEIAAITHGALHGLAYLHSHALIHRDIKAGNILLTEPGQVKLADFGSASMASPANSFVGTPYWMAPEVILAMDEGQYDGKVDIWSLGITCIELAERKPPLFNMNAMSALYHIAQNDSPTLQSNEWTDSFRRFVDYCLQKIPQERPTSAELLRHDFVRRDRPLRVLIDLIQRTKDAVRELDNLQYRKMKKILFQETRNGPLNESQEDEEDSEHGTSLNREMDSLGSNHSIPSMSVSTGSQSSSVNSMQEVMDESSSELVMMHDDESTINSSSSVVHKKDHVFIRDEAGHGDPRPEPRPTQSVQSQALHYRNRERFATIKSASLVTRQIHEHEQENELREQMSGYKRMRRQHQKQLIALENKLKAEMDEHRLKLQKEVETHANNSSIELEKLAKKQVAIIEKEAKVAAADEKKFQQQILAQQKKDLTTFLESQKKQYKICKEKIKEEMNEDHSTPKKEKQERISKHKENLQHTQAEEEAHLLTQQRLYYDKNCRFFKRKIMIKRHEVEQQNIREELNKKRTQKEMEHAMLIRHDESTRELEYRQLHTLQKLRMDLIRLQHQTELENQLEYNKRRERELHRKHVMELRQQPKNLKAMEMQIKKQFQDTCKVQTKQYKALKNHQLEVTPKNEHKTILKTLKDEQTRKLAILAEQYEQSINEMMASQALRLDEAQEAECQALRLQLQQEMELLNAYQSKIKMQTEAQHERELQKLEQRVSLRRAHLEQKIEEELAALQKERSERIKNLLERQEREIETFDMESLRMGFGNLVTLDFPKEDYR

Chain of STE20-like serine/threonine-protein kinase (Homo sapiens) (Q9H2G2 whole entry, looked up): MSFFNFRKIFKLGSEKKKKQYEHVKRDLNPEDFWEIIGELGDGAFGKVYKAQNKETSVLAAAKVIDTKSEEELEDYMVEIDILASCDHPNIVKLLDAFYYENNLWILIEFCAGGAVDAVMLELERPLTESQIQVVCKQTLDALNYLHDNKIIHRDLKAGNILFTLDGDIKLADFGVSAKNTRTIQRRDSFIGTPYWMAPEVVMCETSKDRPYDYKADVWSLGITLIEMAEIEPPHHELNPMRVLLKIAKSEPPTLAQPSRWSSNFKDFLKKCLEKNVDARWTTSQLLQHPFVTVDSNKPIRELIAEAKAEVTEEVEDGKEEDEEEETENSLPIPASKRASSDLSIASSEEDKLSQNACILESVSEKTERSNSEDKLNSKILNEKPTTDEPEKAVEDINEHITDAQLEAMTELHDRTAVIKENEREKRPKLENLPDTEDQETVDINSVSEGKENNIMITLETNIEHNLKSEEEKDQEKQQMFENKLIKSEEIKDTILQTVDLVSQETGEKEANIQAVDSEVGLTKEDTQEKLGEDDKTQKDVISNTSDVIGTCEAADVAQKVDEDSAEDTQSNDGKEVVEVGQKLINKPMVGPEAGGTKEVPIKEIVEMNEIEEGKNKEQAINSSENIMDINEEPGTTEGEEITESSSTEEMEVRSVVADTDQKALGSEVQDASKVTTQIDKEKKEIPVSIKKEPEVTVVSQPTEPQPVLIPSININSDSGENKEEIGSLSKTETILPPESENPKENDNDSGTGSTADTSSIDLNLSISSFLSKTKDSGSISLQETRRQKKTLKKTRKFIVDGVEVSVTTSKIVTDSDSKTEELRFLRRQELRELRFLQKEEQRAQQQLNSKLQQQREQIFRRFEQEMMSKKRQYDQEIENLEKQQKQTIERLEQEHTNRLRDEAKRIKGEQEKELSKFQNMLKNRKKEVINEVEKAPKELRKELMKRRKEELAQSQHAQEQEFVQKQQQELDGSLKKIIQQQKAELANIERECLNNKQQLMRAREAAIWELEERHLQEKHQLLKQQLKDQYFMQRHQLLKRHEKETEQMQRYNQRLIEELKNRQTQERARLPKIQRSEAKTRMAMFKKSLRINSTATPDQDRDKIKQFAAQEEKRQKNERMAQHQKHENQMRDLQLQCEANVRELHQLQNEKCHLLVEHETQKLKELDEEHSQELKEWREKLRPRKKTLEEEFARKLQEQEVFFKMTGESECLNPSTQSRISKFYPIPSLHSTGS

Row | SMILES | inhibition [1] | inhibition [2] | inhibition [3] | inhibition [4] | inhibition [5] | inhibition [6] | inhibition [7]
1 | C[C@]1(O)C[C@@H](c2nc(-c3ccc4ccc(-c5ccccc5)nc4c3)c3c(N)nccn32)C1 | 9.03% | -9.61% | 4.07% | 0.64% | 1.59% | – | –
2 | C[C@@]1(C(=O)Nc2ccc(F)nc2)CCCN1c1nc(Nc2cc(C3CC3)n[nH]2)c2cccn2n1 | – | – | – | – | – | -3.41% | 4.12%
